Data on seven compounds can be found in PubChem BioAssay (NCI).

Test in all cases: growth of human tumour cells (NCI), 48 h
Experiment [1] deals with CCRF-CEM leukemia.
Experiment [2] deals with DU-145 prostate.
Experiment [3] deals with SF-268 CNS.
Experiment [4] deals with SF-539 CNS.
For experiment [5], the system named is MALME-3M melanoma.
In experiment [6] the test system is MCF7 breast.
The test system of experiment [7] is A549 NSCLC.
In experiment [8] the test system is HCT-116 colon.
The subject of experiment [9] is COLO 205 colon.
Experiment [10] deals with OVCAR-3 ovarian.
Experiment [11] deals with MDA-MB-435.
In experiment [12] the test system is SW-620 colon.
The subject of experiment [13] is LOX IMVI melanoma.
Experiment [14] deals with IGROV1 ovarian.
The subject of experiment [15] is SF-295 CNS.
Experiment [16] concerns KM12 colon.
Experiment [17] concerns A498 renal.
In experiment [18] the test system is SR leukemia.
Experiment [19] has as its system NCI-H460 lung.

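Test compounds were applied to cells in 96-well plates for 48 hours at 5 doses. The concentration for 50% growth inhibition is given as GI50. TGI: total growth inhibition.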

As to `CCc1cn(C2CC(CO)C(CO)S2)c(=O)[nH]c1=O` (configuration not stated), the TGI in experiment [1], in experiment [2], in experiment [3], in experiment [4], in experiment [5] and in experiment [6] was greater than 100 µM in each case. The TGI in [7], in [8], in [9], in [10], in experiment [11] and in experiment [12] was greater than 100 µM each time. Besides, the TGI in [13], in [14], in experiment [15], in [16], in experiment [17] and in experiment [18] was greater than 100 µM each time. Further, the GI50 in experiment [18] was greater than 100 µM.
For the compound `Clc1nc(NC23CC4CC(CC(C4)C2)C3)nc(NC23CC4CC(CC(C4)C2)C3)n1`, the TGI in [1] is greater than 90.8 µM; in experiment [2], greater than 100 µM; in experiment [3], greater than 100 µM; in [4], greater than 100 µM; in experiment [5] it was greater than 100 µM; in experiment [6] it was greater than 100 µM. For the same compound, the TGI in experiment [7], in experiment [8], in [9], in experiment [10], in experiment [11] and in [12] was greater than 100 µM throughout. Moreover, the TGI in experiment [13], in [14], in experiment [15], in [16], in experiment [17] and in experiment [18] was greater than 100 µM throughout. Besides, in [19], the TGI was greater than 100 µM.
Take `COc1ccc(-c2c(C#N)c(N)nc(Sc3ccccc3N)c2C#N)cc1`: the TGI in [1] is greater than 100 µM; in [2] it was greater than 100 µM; in experiment [3], 28.1 µM; in [4], 56.9 µM; in experiment [5] it was 42.4 µM; in experiment [6] it was greater than 65.7 µM. The TGI in [7], in [8], in experiment [9], in [10], in experiment [11] and in experiment [12] was greater than 100 µM each time. Further, the TGI is greater than 100 µM in experiment [13]; greater than 56.8 µM in experiment [14]; 56.6 µM in experiment [15]; greater than 100 µM in experiment [16]; 19.6 µM in [17]; greater than 100 µM in experiment [18]. The TGI in [19] was greater than 100 µM.
On to `COc1cc(C)cc2c1C(=O)C(NC(C)=O)=CC2=O`, for which the TGI in experiment [1], in [2], in [3], in [4], in experiment [5] and in [6] was greater than 100 µM throughout. Besides, the TGI was greater than 100 µM in experiment [7]; greater than 100 µM in experiment [8]; greater than 100 µM in [9]; greater than 100 µM in experiment [10]; 31.3 µM in [11]; greater than 100 µM in experiment [12]. The TGI in [14], in experiment [15], in [16], in [17], in [18] and in [19] was greater than 100 µM each time.
With `Fc1nc(-c2c3ccccc3c3sc4ccccc4n23)nc(N2CCOCCOCCOCCOCC2)n1`, the TGI in [1] was 93.4 µM; in experiment [2], greater than 100 µM; in experiment [3], greater than 100 µM; in experiment [4], greater than 100 µM; in experiment [5], greater than 100 µM; in experiment [6] it was greater than 100 µM. Moreover, the TGI in experiment [7], in experiment [8], in experiment [9], in [10], in [11] and in experiment [12] was greater than 100 µM throughout. Besides, the TGI was greater than 100 µM in [13]; greater than 100 µM in experiment [14]; greater than 100 µM in experiment [15]; greater than 100 µM in experiment [16]; greater than 100 µM in experiment [17]; 68.6 µM in [18]. Moreover, in experiment [19], the TGI is greater than 100 µM.
On to `Cc1cc(NS(=O)(=O)c2ccc(NC(=O)c3ccc4nc5ccccc5c(Nc5ccc(S(N)(=O)=O)cc5)c4c3)cc2)no1`, for which the TGI in experiment [1] was 78.3 µM; in experiment [2], greater than 100 µM; in experiment [3], greater than 100 µM; in experiment [4] it was 80.9 µM; in experiment [5], 61.8 µM; in experiment [6], 37.1 µM. Moreover, the TGI in [7] is 66.3 µM; in [8], 63.2 µM; in experiment [9], 43.8 µM; in experiment [10], 74.4 µM; in experiment [11], 45.3 µM; in [12], 72.3 µM. In addition, the TGI in experiment [13] is 26.5 µM; in experiment [14], greater than 100 µM; in experiment [15], greater than 100 µM; in [16] it was 59.1 µM; in experiment [17], greater than 100 µM; in [18], 73.4 µM. Besides, the TGI in experiment [19] is 53.1 µM.
Regarding `O=C(N/N=C\c1ccc([N+](=O)[O-])cc1)Nc1ccc2ccccc2c1`, the TGI was greater than 100 µM in [1]; greater than 100 µM in experiment [2]; greater than 100 µM in experiment [3]; 47.6 µM in experiment [4]; 51.7 µM in experiment [5]; greater than 100 µM in experiment [6]. For the same compound, the TGI in [7] is greater than 100 µM; in experiment [8] it was 63.3 µM; in experiment [9], 71.3 µM; in experiment [10], greater than 100 µM; in experiment [11], greater than 100 µM; in experiment [12], 53.6 µM. The TGI in experiment [13] is greater than 100 µM; in [14], greater than 100 µM; in [15], greater than 100 µM; in experiment [16] it was 67.3 µM; in experiment [17], 56.8 µM; in experiment [18] it was greater than 100 µM. The compound also showed a TGI in [19] of 36.2 µM.
